# Results from patent publication US7081465B2, “Alpha-substituted naphthyloxy omega-substituted alky/aryl amino-substituted alkane derivatives as agent for treatment or prophylaxis of diabetes and related metabolic disorders” (Council of Scientific and Industrial Research, priority 2003, dated 2006).
# Marks after values point to notes of the source that are not given here.
# Key:
# normal rats = experiment: Hypoglycaemic activity on OGTT of normal rats (sucrose-loaded rat model); format: in vivo, Sprague Dawley rats; details: 100-mg/kg, oral, 120 min post glucose load
# Description: Sucrose-Loaded Rat Model:
# Overnight fasted male Sprague Dawley rats were used for the sucrose-loaded experiment. Blood was collected at ‘0’ min from the tail vein of the animals. After the ‘0’ min blood collection, samples/drugs were given to the test group consisting of 5 rats by oral gavage at a dose of 100 mg/kg. Half an hour post test sample treatment, a sucrose-load of 10.0 gm/kg body weight was given to each rat. The blood was collected at 30, 60, 90 & 120 min post sucrose-load.
# The antidiabetic effect of test compounds (compound no. 1 and 4) and standard drug Glybenclamide, Gliclazide on OGTT of normal rats was determined.
# [1] = system: STZ-induced diabetic rats; experiment: Streptozotocin-induced diabetic rat model, single-dose effect on blood glucose; format: in vivo, Sprague Dawley rats; details: 100 mg/kg; for lowering on blood glucose in STZ-induced diabetic rats: 1 to 7 hours post drug administration; for start of blood glucose lowering post drug administration: STZ-induced diabetic rats
# Description: Streptozotocin-Induced Diabetic Rat Model:
# Single-dose effect; Sprague Dawley strain male albino rats of average body weight 160±20 g were selected for this study. A calculated amount of the fresh solution of STZ dissolved in 100 mM citrate buffer (ph 4.5) was injected to overnight fasted rats (60 mg/Kg) intraperitoneally. Blood was checked for glucose content 48 h later by glucometer & animals showing blood glucose profile above 250 mg/dl were selected and were divided into different groups. Blood-glucose levels were again tested at 1, 2, 3, 4, 5, 6, 7 and 24 h post test sample/drug administration. Food but not water was withdrawn from the cages during the experiment.
# The effect of Test compound 1 and standard antidiabetic drug Glybenclamide and gliclazide on blood glucose lowering in STZ-induced diabetic rats were determined. […] The lowering started from 1-hour that persisted up to 7-hours post drug administration.
# [2] = system: hyperlipedemic rats (triton WR-1339); experiment: Lipid lowering activity, Triton model (triton WR-1339 induced hyperlipedemia); format: in vivo, Charles foster rats; details: 100 mg/kg oral simultaneously with triton, plasma after 18 hrs, vs hyperlipemic group
# Description: (a)Triton Model: Male Charles foster rats weighing 200–225 g were divided into control, hyperlipedemic and hyperlipedemic plus drug treated groups containing six animals each. Hyperlipedemia was induced by administration of triton WR-1339(400 mg/kg,IP). All animals were maintained on standard pellet diet and water ad lib. Test compound no. 1 and Gugulipid (standard drug) were macerated with 2% aqueous gum acacia and this suspension was fed orally at the dose of 100 mg/kg simultaneously with triton. The animals of control group received same amount of gum acacia. At the end of experiment, after 18 hrs, blood was withdrawn from retro orbital plexus and plasma was used for the assay of total cholesterol, phospholipid and triglyceride by standard spectrophotometric method. Results: Administration of triton in rats produced marked hyperlipedemia as observed by the increased levels of plasma cholesterol, phospholipid and triglyceride by 2.92, 3.32, 3.64 folds respectively (Table-1).
# [3] = system: HFD fed dyslipemic hamsters; experiment: Dyslipemic hamster model (fructose rich high fat diet); format: in vivo, golden syrian hamster
# Excerpt: (b) Dyslipemic Hamster Model: Male golden syrian hamster weighing 120–130 gm were divided into control, dyslipemic and dyslipemic plus drug treated group of 8 animals in each.
# Dyslipemia was produced by feeding with fructose rich high fat diet(HFD). Dyslipemic hamsters had free acccess to HFD and water ad. Lib for 10 days (day 1 to day 10). Compound 1 was macerated in vehicle containing 0.2% CMC+0.4% tween-80 in distilled water and fed orally at the dose of 300[…] mole/kg from day 4 to day 10 simultaneously with HFD feeding to hamster. Control animals received same amount of vehicle. At the end of the experiment on 10th day, blood was withdrawn and plasma was used for assay of triglyceride(Tg), cholesterol(chol), high density lipoprotein(HDL), glucose, glycerol and free fatty acids(FFA) by standard spectrophotometric methods on auto analyser. In another set of experiment antidyslipemic activity of fenofibrate at the dose of 1000[…] mole/kg was evaluated.
# [4] = 300 μmol/kg oral day 4 to day 10, plasma on 10th day
# [5] = dose 300 (μ)mole/kg, HFD fed hamsters
# [6] = 1000 μmol/kg, another set of experiment
# [7] = dose 1000 (μ)mole/kg, HFD fed dyslipemic hamsters
smiles,measurement,setting,value
"COc1ccc(NCCCOc2ccc3ccccc3c2)cc1 [Compound 1, N-(4-Methoxyphenyl)-[3-(naphthalen-2-yloxy)propyl]amine]",lowering on OGTT of normal rats,normal rats,33.6%
same,lowering on blood glucose in STZ-induced diabetic rats,[1],28.0%
same,start of blood glucose lowering post drug administration,[1],1 h
same,% lowering of plasma lipids: Triglyceride,[2],28%
same,% lowering of plasma lipids: Cholesterol,[2]; listed as Test Compound 1,26* %
same,% lowering of plasma lipids: Phospholipid,[2]; listed as Test Compound 1,33** %
same,% lowering of plasma lipids: Triglyceride,[2]; listed as Test Compound 1,28* %
same,per cent change in CHOL,[3]; [4],−8 per cent
same,per cent change in GLU,[3]; [4],−31** per cent
same,per cent change in GLY,[3]; [4],−14 per cent
same,per cent change in HDL,[3]; [4],+15 per cent
same,per cent change in TG,[3]; [4],−48** per cent
same,change in FFA levels,[3]; [5],No significant change
same,increase in plasma HDL,[3]; [5],15%
same,reduced level of plasma Tg,[3]; [5],48%
same,reduced level of plasma chol,[3]; [5],8%
same,reduced level of plasma glucose,[3]; [5],31%
same,reduced level of plasma glycerol,[3]; [5],14%
COc1ccc(Cl)cc1C(=O)NCCc1ccc(S(=O)(=O)NC(=O)NC2CCCCC2)cc1 [Glybenclamide],lowering on OGTT of normal rats,normal rats,33.9%
same,lowering on blood glucose in STZ-induced diabetic rats,[1],32.8%
same,start of blood glucose lowering post drug administration,[1],1 h
Cc1ccc(S(=O)(=O)NC(=O)NN2CC3CCCC3C2)cc1 (stereo not drawn) [Gliclazide],lowering on OGTT of normal rats,normal rats,44.8%
same,lowering on blood glucose in STZ-induced diabetic rats,[1],27.7%
same,start of blood glucose lowering post drug administration,[1],1 h
CC(C)OC(=O)C(C)(C)Oc1ccc(C(=O)c2ccc(Cl)cc2)cc1 [Fenofibrate],per cent change in CHOL,[3]; [6],−30** per cent
same,per cent change in FFA,[3]; [6],−53** per cent
same,per cent change in GLU,[3]; [6],−33** per cent
same,per cent change in GLY,[3]; [6],−52** per cent
same,per cent change in HDL,[3]; [6],+33** per cent
same,per cent change in TG,[3]; [6],−77** per cent
same,increase in plasma HDL,[3]; [7],33%
same,lowering in plasma FFA,[3]; [7],53%
same,lowering in plasma Tg,[3]; [7],77%
same,lowering in plasma chol,[3]; [7],30%
same,lowering in plasma glucose,[3]; [7],33%
same,lowering in plasma glycerol,[3]; [7],52%
